Patent US10899750B2, “Methods and compositions of small molecule modulators of hepatocyte growth factor (scatter factor) activity” (ANGION BIOMEDICA CORP., priority 2008, dated 2021)

Tests used:
HUVECs = assay: Nitric oxide production in endothelial cells (DAF2-DA fluorescence); type: cell-based, human; conditions: 24 hours incubation
Procedure: c. HGF and compounds of the invention stimulate nitric oxide production in endothelial cells. HUVECs are incubated with either vehicle, HGF/SF, instant compounds, or SNAP for 24 hours, loaded with the nitric oxide-sensitive fluorescence indicator DAF2-DA and imaged under a laser scanning confocal microscope.

[1] = system: LX2 cells (an immortalized human hepatic stellate cell line); assay: Antifibrotic activity in hepatic stellate cells; type: cell-based; conditions: serum starved (activated) LX2 cells
Source text: a. Antifibrotic Activity in Hepatic Stellate Cells.

[2] = system: NIH-3T3 cells transfected with the gene for the c-met receptor; assay: Protection from apoptosis in NIH-3T3 cells transfected with c-met receptor (MTT assay); type: cell-based
Source text: b. Protection from apoptosis in NIH-3T3 cells transfected with c-met receptor.

MDCK cells = assay: Anti-apoptotic activity in cultured cell lines (adriamycin-induced apoptosis); type: cell-based
Source text: a. HGF/SF and instant compounds have significant anti-apoptotic activity in cultured cell lines.

Compound | Nitric oxide production (DAF2-DA fluorescence) (HUVECs) | Collagen I mRNA expression [1] | Protection from adriamycin-induced apoptosis (MTT assay) [2] | Adriamycin-induced apoptosis (MDCK cells; MDCK cells) | Cell viability (MDCK cells; pretreatment, HUVEC and MDCK cell lines)
CC(=O)N[C@@H](C(=O)O)C(C)(C)SN=O (racemic) [SNAP, reference compound] | significant increase in fluorescence |  |  |  | 
HGF/SF: pleiotropic growth factor; heparin-binding heterodimeric protein composed of a 62 kDa α chain and a 34 kDa β chain | significant increase in fluorescence | decrease in collagen I mRNA expression | protect the cells from adriamycin-induced apoptosis | significantly block adriamycin-induced apoptosis | significantly improves the cell viability
